In series [1] the target is human brain enzyme FACL-4 (Homo sapiens, UniProt O60488). The conditions noted are these: cited from earlier work.
The subject of series [2] is patients who had schizophrenia. Put plainly: randomised, placebo-controlled study of ethyl-EPA in clozapine-treated patients with schizophrenia (PANSS, MADRS). The format is in vivo, human. The conditions noted are these: 12 weeks, patients on clozapine. From the text:
Although the case reports of the effects of ethyl-EPA are convincing and in some cases dramatic, unequivocal proof of its efficacy must come from randomised, placebo-controlled trials. We therefore set up a randomised, placebo-controlled study of EPA in 34 patients who had schizophrenia according to the criteria set out in the American Psychiatric Association's Diagnostic and Statistical Manual of Mental Disorders (4th edition, DSM-IV). All of these patients were being treated with clozapine drugs but all remained seriously ill, with schizophrenic symptoms. Like many schizophrenics, some of the patients were also depressed. All were assessed at baseline and after 12 weeks using the Positive and Negative Symptom Scale for Schizophrenia (PANSS) and the Montgomery-Asberg Depression Rating Scale (MADRS). After giving informed consent, all the patients were randomised on a double blind basis to one of three groups: placebo, or 1 g or 2 g of ethyl-EPA per day in the form of 0.5 g capsules. Placebo and EPA capsules were indistinguishable from one another in appearance. All the patients improved to some degree so all the changes are percentage improvements

Series [3] concerns tardive dyskinesia. Put plainly: patients with neuroleptic-induced tardive dyskinesia treated with EPA. The format is in vivo, human. The conditions noted are these: several patients. The source says: The typical neuroleptics in some patients produce a distressing condition called tardive dyskinesia. […] The patient experiences uncontrollable twitching and other movements. These can affect any part of the body but commonly affect the face where they are particularly distressing. Facial twitches and movements, including protrusions and uncontrollable movements of the tongue occur. […] Movements have become substantially less and in some patients have disappeared completely.

Series [4] concerns phospholipase A2. The conditions noted are these: cited from earlier work.
The subject of series [5] is schizophrenia. Briefly: case history: schizophrenia, ethyl-EPA added to haloperidol. The class given is in vivo, human. Conditions: person. From the text:
A person had become ill with schizophrenia. They had florid hallucinations and paranoia, but also withdrew themself from most of their friendships and lived alone. […] They lived alone, ceased to communicate with most of their friends, and went around to town alone and muttering to […]. Their psychiatrist heard about ethyl-EPA and decided to try it in addition to the standard drug. After eight weeks on treatment with 4 g/day their outlook was transformed. […] They were even persuaded to go on holiday with their family where they enjoyed themself and made new friends. The EPA therefore reversed the extreme withdrawal which appeared to have been exaggerated by haloperidol.

In series [6] the test system is attention deficit hyperactivity disorder (ADHD). Put plainly: case report: child with ADHD. The format is in vivo, human. The conditions noted are these: before ethyl-EPA. The source says:
Attention deficit hyperactivity disorder (ADHD): ADHD and closely related conditions like attention deficit disorder and conduct disorders are commonly found in children. Occasionally they may be successfully treated by behaviour modification and other psychological techniques or by careful attention to diet. However, in most cases, paradoxical treatment with one of the stimulant drugs related in their action to amphetamine is required. Methylphenidate and dextroamphetamine are the commonest used. A child with serious ADHD since infancy was driving their parents to distraction. […] The parents were concerned about the long term consequences of stimulant drugs. The child was therefore tried on two capsules of pure ethyl-EPA per day. […] The child became less tense and irritable, less hyperactive, more open to reasoned discussion and enormously less disruptive both at home and school. Even when their methylphenidate was stopped, their behaviour remained improved.

In series [7] the test system is schizophrenia, drug-induced obesity. The class given is in vivo, human. The conditions noted are these: in vivo. From the text:
Obesity is another common side effect of antipsychotropic drugs. In this respect some of the newer drugs like olanzapine frequently seem to be even worse offenders than the typical neuroleptics. […] They preferred the olanzapine but it still left their withdrawn and unable to communicate normally with friends or family. To their distress it caused them to put on over 10 kg in weight. Their doctor decided to test ethyl-EPA in addition to olanzapine.

Series [8] has as its system schizophrenia. Briefly: case history: schizophrenia, E-EPA added to clozapine. The class given is in vivo, human. The conditions noted are these: patient not responding to typical neuroleptics; clozapine up to 900 mg/day. The source says:
This mechanism is thought to be responsible for their rapid effects on the so-called “positive” symptoms of schizophrenia (such as hallucinations, delusions and thought disorder). […] The D2 blocking action is also responsible for many of the adverse effects of these drugs, which include extrapyramidal movement disorders, excess prolactin secretion, and tardive dyskinesias. Examples of widely used drugs in this class include chlorpromazine, thioridazine, haloperidol, pimozide, flupenthixol and sulpiride.
These may include blockade of one or more of the other dopamine receptors such as D1, D3 or D4, and also usually including blockade of one or more classes of serotonin receptors. […] They may also have actions at other receptors, including histamine, glutamate and acetyl choline receptors.
The patient was treated with clozapine, eventually reaching a maximum dose of 900 mg/day.
E-EPA in a dose of 2 g/day was then administered in addition to clozapine.

Chain of human brain enzyme FACL-4 (O60488 whole entry): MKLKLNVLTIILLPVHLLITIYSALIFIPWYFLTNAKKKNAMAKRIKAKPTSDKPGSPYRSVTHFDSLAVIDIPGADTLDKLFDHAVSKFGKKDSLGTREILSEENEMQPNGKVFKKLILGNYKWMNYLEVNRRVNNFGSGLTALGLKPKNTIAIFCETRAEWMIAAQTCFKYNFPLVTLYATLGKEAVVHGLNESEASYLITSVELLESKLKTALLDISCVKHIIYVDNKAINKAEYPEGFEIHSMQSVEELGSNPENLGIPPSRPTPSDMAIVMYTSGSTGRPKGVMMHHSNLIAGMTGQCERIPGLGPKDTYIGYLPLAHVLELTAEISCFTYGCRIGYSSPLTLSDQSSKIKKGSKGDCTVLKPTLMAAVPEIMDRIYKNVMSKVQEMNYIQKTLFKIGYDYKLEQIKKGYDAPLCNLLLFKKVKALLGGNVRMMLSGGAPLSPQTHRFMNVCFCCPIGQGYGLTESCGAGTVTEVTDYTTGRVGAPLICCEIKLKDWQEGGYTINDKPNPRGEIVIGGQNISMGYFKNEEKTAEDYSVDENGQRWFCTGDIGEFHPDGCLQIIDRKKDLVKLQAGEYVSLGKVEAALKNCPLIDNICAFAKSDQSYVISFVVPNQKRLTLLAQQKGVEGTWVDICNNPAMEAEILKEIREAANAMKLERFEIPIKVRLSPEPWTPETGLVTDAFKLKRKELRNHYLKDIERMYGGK

On to `CCCCC/C=C\C/C=C\C/C=C\C/C=C\CCCC(=O)O` [AA, arachidonic acid, reference compound], for which, in series [1] (relative to DHA), the “FACL-4 activity for AA relative to DHA” value is “more than twice as great as for DHA”.

For the compound `CC/C=C\C/C=C\C/C=C\C/C=C\C/C=C\CCCC(=O)O` [EPA, all cis (or all z) 5,8, 11, 14, 17-eicosapentaenoic acid], in series [2] (1 g ethyl-EPA per day), the “MADRS, percentage improvement from baseline” value is 35.7%; the “Total PANSS, percentage improvement from baseline” value came to 18.8%; the “negative PANSS, percentage improvement from baseline” value stood at 22.7%; the “positive PANSS, percentage improvement from baseline” value turned out to be 20.0%. Also, in series [2] (2 g ethyl-EPA per day), the “MADRS, percentage improvement from baseline” value was found to be 35.7%; the “Total PANSS, percentage improvement from baseline” value was found to be 17.1%; the “negative PANSS, percentage improvement from baseline” value was 22.7%; the “positive PANSS, percentage improvement from baseline” value is given as 25.0%. Also, the tardive dyskinesia entry in series [3] is listed as “substantial relief from tardive dyskinesia”. Besides, in series [4], the “inhibition of phospholipase A2” value is recorded as “known to inhibit phospholipase A2”. In addition, in series [1], the “affinity for FACL-4” value was “unusually high affinity”. Moreover, the “FACL-4 activity for EPA, greater than for AA” value in series [1] (relative to AA) is reported as 50%.

For the compound `O=C(CCCN1CCC(O)(c2ccc(Cl)cc2)CC1)c1ccc(F)cc1` [haloperidol, reference compound], the “effect on hallucinations, drug alone” value in series [5] is listed as “stopped most of the hallucinations”.

Turning to `COC(=O)C(c1ccccc1)C1CCCCN1` (stereo not drawn) [methylphenidate, reference compound], the “control of ADHD” value in series [6] is given as “only partially controlled”.

As to `Cc1cc2c(s1)Nc1ccccc1N=C2N1CCN(C)CC1` [olanzapine, reference compound], the weight put on result in series [7] was “over 10 kg”.

With `OCCOCCN1CCN(C2=Nc3ccccc3Sc3ccccc32)CC1` [quetiapine, reference compound], the “clinical response to neuroleptic alone” value in series [8] was “no substantial benefit”.

`Cc1nc2n(c(=O)c1CCN1CCC(c3noc4cc(F)ccc34)CC1)CCCC2` [risperidone, reference compound]: the “clinical response to neuroleptic alone” value in series [8] is “no substantial benefit”.

The values above are taken from US6384077B1, “Highly purified EPA for treatment of schizophrenia and related disorders” (Laxdale Limited, priority 1999, dated 2002).
